Assay: BAA-NP, BUA-NP or human BNP infusion in anesthetized dogs: renal, hemodynamic and neurohumoral measurements
Format: in vivo, dog
Conditions: for net renal generation of cGMP / plasma cGMP / urinary cGMP excretion / urinary sodium excretion / urine flow: 30 and 60 minutes of infusion vs. pre-infusion; for plasma ANP immunoreactivity / plasma CNP immunoreactivity: RIA; for glomerular filtration rate: inulin clearance; for mean arterial pressure / renal perfusion pressure: BNP at equimolar dose; for renal perfusion pressure: mean arterial pressure minus right atrial pressure
Experimental: BAA-NP and BUA-NP were reconstituted in normal saline and were infused at 1 mL/minute. Dogs were maintained on a Na^+-controlled diet (Hill's i/d® canine diet, Hill's Pet Nutrition, Inc., Topeka, Kans.). In the evening before the experiment, the dog was fasted with ad lib access to water and was given lithium carbonate 300 mg orally for assessment of renal tubular function on the next day.
On the day of the experiment, the dog was anesthetized with pentobarbital sodium (induction 6-20 mg/kg i.v., maintenance 5-15 mg/kg/h i.v.) and fentanyl (0.04-0.12 mg/kg i.v., maintenance 0.04-0.18 mg/kg/h), and was intubated and mechanically ventilated (Harvard Apparatus, Holliston, Mass.) with 3 L/minute of 02 (tidal volume 15 mL/kg, 12 cycles/minute). The femoral artery was cannulated for blood pressure monitoring and for blood sampling. The femoral vein was cannulated for infusion of inulin and normal saline. The saphenous vein was cannulated for polypeptide infusion. A balloon-tipped thermodilution catheter (Edwards Lifesciences, Irvine, Calif.) was used for monitoring hemodynamics and body temperature (maintained at 38±1° C.). Cardiac output (CO) was measured in triplicate and averaged (model 9510-A, American Edwards Laboratories, Irvine, Calif.). Hemodynamic data were digitally recorded and analyzed (Sonometrics Corporation, London, ON). The left kidney was exposed via a flank incision. The ureter was cannulated for timed urine collection. An electromagnetic flow probe was placed on the renal artery for measuring renal blood flow (Burnett et al., Am. J. Physiol., 247(5 Pt 2):F863-6 (1984)). A weight-adjusted bolus of inulin was given, followed by an inulin infusion (1 mL/minute) to achieve plasma levels of 40-60 mg/dL (Burnett et al., Am. J. Physiol., 247(5 Pt 2):F863-6 (1984); Chen et al., Am. J. Physiol. Regul. Integr. Comp. Physiol., 288(5):R1093-7 (2005); and Margulies et al., J. Clin. Invest., 88(5):1636-42 (1991)), for measuring GFR by inulin clearance. Normal saline was infused (1 mL/minute) and was temporarily discontinued during peptide infusion (1 mL/minute).
Following equilibration of approximately 60 minutes in duration, the BAA-NP or BUA-NP polypeptide was infused for 75 minutes. Hemodynamic and renal data, as well as blood and urine samples, were collected for each 30-minute clearance: pre-infusion, at 30 and 60 minutes of infusion (time denotes mid-clearance). Inulin clearance was used for measuring glomerular filtration rate (GFR). The lithium clearance technique was used for quantifying proximal and distal fractional reabsorption of Na^+ (PFRNa and DFRNa, respectively).
Plasma and urinary ANP, CNP, and cGMP were measured by radioimmunoassays (RIA) (Chen et al., Am. J. Physiol. Regul. Integr. Comp. Physiol., 288(5):R1093-7 (2005); Burnett et al., Science, 231(4742):1145-7 (1986); Steiner et al., J. Biol. Chem., 247(4):1106-13 (1972); Supaporn et al., Kidney Int., 50(5):1718-25 (1996); and Cataliotti et al., Am. J. Physiol., 283(3):F464-72 (2002)). Plasma renin activity (Haber et al., J. Clin. Endocrinol. Metab., 29(10):1349-55 (1969)), angiotensin II (Luchner et al., Hypertension, 28(3):472-7 (1996)), and aldosterone (Sancho and Haber, J. Clin. Endocrinol. Metab., 47(2):391-6 (1978)) were quantified. Plasma and urinary lithium levels were measured by flame emission spectrophotometry (model 357, Instrumentation Laboratory, Wilmington, Mass.) (Margulies et al., J. Clin. Invest., 88(5):1636-42 (1991)). The lithium clearance technique (CLLi) was used to assess PFRNa and DFRNa as follows (Chen et al., Am. J. Physiol. Regul. Integr. Comp. Physiol., 288(5):R1093-7 (2005)): PFRNa=[1−(CLLi/GFR)]×100 and DFRNa=[(CLLi−CLNa)/CLLi]×100, where CLLi=[urine Li^+]×urine flow/[plasma Li^+] and CLNa=[urine Na^+]×urine flow/[plasma Na^+]. Net renal production of cGMP was determined (Margulies et al., J. Clin. Invest., 88(5):1636-42 (1991)): (urinary cGMP×urine flow rate)−(plasma cGMP×GFR). […]

[1] = anesthetized dogs, i.v. infusion
[2] = anesthetized dogs, i.v. infusion, vs. pre-infusion
[3] = anesthetized dogs, i.v. infusion, lithium clearance technique, vs. pre-infusion
[4] = at 30 minutes of infusion, BNP compared to BAA-NP or BUA-NP, equimolar dose
[5] = at 60 minutes of infusion, BNP compared to BAA-NP or BUA-NP, equimolar dose

Substance | net renal generation of cGMP [1] | plasma cGMP [1] | urinary cGMP excretion [1] | urinary sodium excretion [1] | urine flow [1] | plasma ANP immunoreactivity [2] | plasma CNP immunoreactivity [2] | glomerular filtration rate [2] | distal fractional reabsorption of sodium [3] | proximal fractional reabsorption of sodium [3] | cardiac output [2] | hematocrit (hemoconcentration) [2] | pulmonary arterial pressure [2] | pulmonary capillary pressure [2] | renal blood flow [2] | renal vascular resistance [2] | right atrial pressure [2] | mean arterial pressure [2] | change in renal perfusion pressure from baseline [4] | change in renal perfusion pressure from baseline [5] | other results
SLRRSSCFGRKMDRISSSSG-LGCNSFRY (SLRRSSCFGRKMDRISSSSGLGCNSFRY) [BAA-NP, 28-residue chimeric natriuretic polypeptide: human ANP residues 1-6, human mature BNP residues 10-26, human ANP residues 24-28] | significantly increased | significantly increased | significantly increased | significantly increased | significantly increased | significantly increased | significantly increased | preserved | significantly reduced | significantly reduced | preserved | significant increase | significantly reduced | significantly reduced | significantly enhanced | significantly reduced | significantly reduced | mild decrease | preserved | preserved | plasma aldosterone [2]: significantly suppressed; plasma angiotensin II [2]: significantly suppressed; plasma renin activity [2]: significantly suppressed; urinary excretion of ANP [2]: significantly increased; urinary excretion of CNP [2]: significantly increased; urinary potassium excretion [2]: significantly increased
TAPRSLRRSSCFGRKMDRIS-SSSGLGCNSFRY (TAPRSLRRSSCFGRKMDRISSSSGLGCNSFRY) [BUA-NP, 32-residue chimeric natriuretic polypeptide: human urodilatin residues 1-10, human mature BNP residues 10-26, ANP C-terminus] | significantly increased | significantly increased | significantly increased | significantly increased | significantly increased | significantly increased | significantly increased | preserved | significantly reduced | significantly reduced | preserved | significant increase | significantly reduced | significantly reduced | significantly enhanced | significantly reduced | significantly reduced | mild decrease | preserved | preserved | activation of cGMP (BUA-NP compared with BAA-NP): greater activation; distal fractional reabsorption of sodium (BUA-NP compared with BAA-NP): greater reductions; natriuresis and diuresis (BUA-NP compared with BAA-NP): enhanced; proximal fractional reabsorption of sodium (BUA-NP compared with BAA-NP): greater reductions; renal perfusion pressure [2]: preserved; urinary potassium excretion [2]: significantly increased
human BNP: human BNP natriuretic polypeptide, comparator infused at equimolar dose [reference compound] | – | – | – | – | – | – | – | – | – | – | – | – | – | – | – | – | – | significantly reduced | significantly greater decreases | significantly greater decreases | renal perfusion pressure [2]: significantly reduced; change in mean arterial pressure from baseline [4]: significantly greater reduction; change in mean arterial pressure from baseline (at 60 minutes of infusion, BNP versus BAA-NP): greater decrease

From patent publication US9771405B2, “Nucleic acids encoding for chimeric natriuretic polypeptides with unique pharmacologic profiles” (Mayo Foundation for Medical Education and Research, priority 2008, dated 2017)
